In patent US8758988B2, “Cryopreservation of articular cartilage” (The Governors of the University of Alberta, priority 2009, dated 2014):
Where two headings read alike, the source gives them in different places.

Legend:
[1] = Arrhenius fit of CPA diffusion coefficients (constants and activation energies); format: physicochemical; details: for Ea (activation energy) / Dcwo (Arrhenius constant): Table (1), Arrhenius fit of diffusion coefficients; for Dcwo (Arrhenius constant): R = 0.001986 Kcal/(mol. K)
Method: Full thickness AC (on 5-10 mm bone base) is harvested from the sample tissue using a hand-held coring device and held at 4° C. in 1× Dulbecco's phosphate-buffered saline (PBS) solution (pH 7.1) (Gibco Invitrogen, Carlsbad, Calif.). Each osteochondral dowel (OCD) is assigned to one of four CPA treatment groups [DMSO, PG, EG, glycerol (all at 6.5M, in 1×PBS)] and one of 11 incubation times (1 second, 1, 2, 5, 10, 15, 30, 60, 120, 180 minutes, 24 hours), as well as one of three temperatures (4, 22, 37° C.). Each combination of treatment, time, and temperature is repeated at least three times.
The tissue sample is isolated by scalpel and the tissue returned to 1×PBS for 5 min, then blotted lightly using Kimwipes® tissue (Kimberly-Clark, Roswell, Ga.) to remove excess fluid from the sample surface, weighed (W1), and immediately immersed in 5 ml of CPA solution for the specified incubation time at the specified temperature. After incubation, the sample is removed from the solution, blotted lightly and weighed for a second time (W2). The sample is then placed into a 35×10 mm cell culture dish (Corning Inc., Corning, N.Y.) containing 4 mL of 1×PBS, fully immersed in the PBS and the dish sealed with Parafilm® (American National Can, Chicago, Ill.) and held for 24 h at 22° C. under dark conditions to allow the CPA within the AC disc to fully equilibrate with the surrounding PBS solution. After 24 h, the CPA/PBS solution is mixed using a pipettor and a 1 mL sample is taken into a 1.5 mL microcentrifuge tube (Thermo Fisher Scientific, Waltham, Mass.). From this sample, 50 μL is placed into a μOSMETTE™ micro-osmometer (Precision Systems, Natick, Mass.) to determine its osmolality (Osm).
The values of the diffusion coefficients for the single CPA diffusion in water were used in the calculations. The values of the diffusion coefficients were calculated before, by fitting Fick's law to the experimental data, as explained in the preceding section of this patent labeled “Permeation Kinetics of CPAs in AC matrix”.
[formula] at x=0, and CCPA=C* at x=THK, where C* is the concentration of the CPA in the external bath at each step of the protocol. The temperature dependence of the diffusion coefficients was calculated by fitting an Arrhenius equation to the values of diffusion coefficients obtained for each CPA at 3 different temperatures as in the preceding section of this patent labeled “Permeation Kinetics of CPAs in AC matrix”. The values of diffusion coefficients were taken from Jomha et al (N M Jomha, G K Law, A Abazari, K Rekieh, J A W Elliott, L E McGann. Permeation of several cryoprotectant agents into porcine articular cartilage. Cryobiology 58(1), 110-114, 2009). For F (formamide), 2 values for diffusion coefficients of formamide in water at 2 different temperatures were extracted from the literature:
Then, these values were fitted to an Arrhenius equation to calculate the constant and activation energy for formamide. As an example, the increase in the minimum DMSO concentration in cartilage, diffusing from a bath of 3 M DMSO solution, at −10° C., was calculated by solving Eqn. (8) as the following:
First, the diffusion coefficient of DMSO in water at −10° C. was calculated from the results of the Arrhenius fit in Table (1). DDMSO(at T=−10° C.=263 K)=298.95×10^−9×exp(−3.9/0.001986/263)=1.71×10^−10 m^2/s

[2] = formamide in water, cited from earlier work

| Structure (SMILES) | Ea (activation energy) [1] [kJ/mol] | Dcwo (Arrhenius constant) [1] | diffusion coefficient of DMSO in water ([1]; at T=−10° C.=263 K, calculated from the Arrhenius fit in Table (1)) | Diffusion coefficient (m^2/s) ([2]; Temperature 278.2 K) | Diffusion coefficient (m^2/s) ([2]; Temperature 298.15 K) |
| --- | --- | --- | --- | --- | --- |
| C[S+](C)[O-] [D (DMSO), dimethyl sulfoxide] | 16.3 | 298.95 ×10^−9 m^2/s | 1.71×10^−10 m^2/s | – | – |
| OCCO [E (EG), ethylene glycol] | 15.9 | 183.30 ×10^−9 m^2/s | – | – | – |
| NC=O [F (Form), formamide] | 17.56 | 1903.510 ×10^−9 m^2/s | – | 0.95 × 10^−9 m^2/s | 1.58 × 10^−9 m^2/s |
| OCC(O)CO [G (Gly), glycerol] | 23.4 | 208.03 ×10^−9 m^2/s | – | – | – |
| CC(O)CO (stereo not shown) [P (PG), propylene glycol] | 27.7 | 16971.0 ×10^−9 m^2/s | – | – | – |
